Assay results taken from PubChem BioAssay (NCI).
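The compound was tested at five concentrations on cells cultured in 96-well plates, with a 48-hour exposure period. The concentration for 50% growth inhibition is given as GI50. Definition used: TGI = concentration required for complete inhibition of growth.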

What was measured:
Experiment in all cases: NCI anticancer screen, dose series, 48 h
HCT-116 colon = system: HCT-116 colon
TK-10 renal = system: TK-10 renal
SNB-19 CNS = system: SNB-19 CNS
MOLT-4 leukemia = system: MOLT-4 leukemia
CCRF-CEM leukemia = system: CCRF-CEM leukemia
SF-295 CNS = system: SF-295 CNS
LOX IMVI melanoma = system: LOX IMVI melanoma
OVCAR-8 ovarian = system: OVCAR-8 ovarian
U251 CNS = system: U251 CNS
M14 melanoma = system: M14 melanoma
K-562 leukemia = system: K-562 leukemia
OVCAR-5 ovarian = system: OVCAR-5 ovarian
PC-3 prostate = system: PC-3 prostate
RPMI-8226 leukemia = system: RPMI-8226 leukemia
COLO 205 colon = system: COLO 205 colon
SK-MEL-2 melanoma = system: SK-MEL-2 melanoma
MALME-3M melanoma = system: MALME-3M melanoma
HOP-92 NSCLC = system: HOP-92 NSCLC
A549 NSCLC = system: A549 NSCLC
HT29 colon = system: HT29 colon
SK-OV-3 ovarian = system: SK-OV-3 ovarian
ACHN renal = system: ACHN renal
786-0 renal = system: 786-0 renal
NCI-H460 lung = system: NCI-H460 lung
A498 renal = system: A498 renal
MDA-MB-435 = system: MDA-MB-435
OVCAR-3 ovarian = system: OVCAR-3 ovarian
HL-60(TB) leukemia = system: HL-60(TB) leukemia
SF-268 CNS = system: SF-268 CNS
DU-145 prostate = system: DU-145 prostate
HCC-2998 colon = system: HCC-2998 colon
T-47D breast = system: T-47D breast
NCI-H23 lung = system: NCI-H23 lung
SK-MEL-5 melanoma = system: SK-MEL-5 melanoma
SN12C renal = system: SN12C renal
HCT-15 colon = system: HCT-15 colon
SNB-75 CNS = system: SNB-75 CNS
MCF7 breast = system: MCF7 breast
SW-620 colon = system: SW-620 colon
UACC-62 melanoma = system: UACC-62 melanoma
MDA-MB-231 breast = system: MDA-MB-231 breast
CAKI-1 renal = system: CAKI-1 renal
RXF 393 renal = system: RXF 393 renal
OVCAR-4 ovarian = system: OVCAR-4 ovarian
NCI/ADR-RES ovarian = system: NCI/ADR-RES ovarian
HS 578T breast = system: HS 578T breast
NCI-H522 lung = system: NCI-H522 lung
UO-31 renal = system: UO-31 renal
HOP-62 NSCLC = system: HOP-62 NSCLC
BT-549 breast = system: BT-549 breast
EKVX NSCLC = system: EKVX NSCLC
KM12 colon = system: KM12 colon
UACC-257 melanoma = system: UACC-257 melanoma
NCI-H226 lung = system: NCI-H226 lung
IGROV1 ovarian = system: IGROV1 ovarian
SF-539 CNS = system: SF-539 CNS
SK-MEL-28 melanoma = system: SK-MEL-28 melanoma

C[C@@H]1CN(c2ccc3ncc(C#Cc4cncc(C(=O)Nc5ccc(CN6CCN(C)CC6)c(C(F)(F)F)c5)c4)n3n2)C[C@H](C)O1
GI50 (HCT-116 colon): 34.5 nM
TGI (HCT-116 colon): 274 nM
GI50 (TK-10 renal): 68.3 nM
TGI (TK-10 renal): 400 nM
GI50 (SNB-19 CNS): 325 nM
TGI (SNB-19 CNS): 1150 nM
GI50 (MOLT-4 leukemia): 77.7 nM
TGI (MOLT-4 leukemia): 529 nM
GI50 (CCRF-CEM leukemia): 200 nM
TGI (CCRF-CEM leukemia): 10300 nM
GI50 (SF-295 CNS): 214 nM
TGI (SF-295 CNS): 1530 nM
GI50 (LOX IMVI melanoma): 36.8 nM
TGI (LOX IMVI melanoma): 144 nM
GI50 (OVCAR-8 ovarian): 176 nM
TGI (OVCAR-8 ovarian): 991 nM
GI50 (U251 CNS): 119 nM
TGI (U251 CNS): 1300 nM
GI50 (M14 melanoma): 36.5 nM
TGI (M14 melanoma): 322 nM
TGI (K-562 leukemia): 359 nM
GI50 (OVCAR-5 ovarian): 157 nM
TGI (OVCAR-5 ovarian): 975 nM
GI50 (PC-3 prostate): 128 nM
TGI (PC-3 prostate): 1810 nM
GI50 (RPMI-8226 leukemia): 258 nM
TGI (RPMI-8226 leukemia): 5640 nM
GI50 (COLO 205 colon): 135 nM
TGI (COLO 205 colon): 781 nM
GI50 (SK-MEL-2 melanoma): 130 nM
TGI (SK-MEL-2 melanoma): 294 nM
GI50 (MALME-3M melanoma): 77.8 nM
TGI (MALME-3M melanoma): 251 nM
GI50 (HOP-92 NSCLC): 28.8 nM
TGI (HOP-92 NSCLC): 118 nM
GI50 (A549 NSCLC): 63.6 nM
TGI (A549 NSCLC): 410 nM
GI50 (HT29 colon): 67.4 nM
TGI (HT29 colon): 1100 nM
GI50 (SK-OV-3 ovarian): 216 nM
TGI (SK-OV-3 ovarian): 736 nM
GI50 (ACHN renal): 37.5 nM
TGI (ACHN renal): 211 nM
GI50 (786-0 renal): 48.3 nM
TGI (786-0 renal): 202 nM
GI50 (NCI-H460 lung): 74.9 nM
TGI (NCI-H460 lung): 732 nM
GI50 (A498 renal): 118 nM
TGI (A498 renal): 253 nM
GI50 (MDA-MB-435): 86.1 nM
TGI (MDA-MB-435): 1110 nM
GI50 (OVCAR-3 ovarian): 98.2 nM
TGI (OVCAR-3 ovarian): 1150 nM
GI50 (HL-60(TB) leukemia): 50.7 nM
TGI (HL-60(TB) leukemia): 312 nM
GI50 (SF-268 CNS): 111 nM
TGI (SF-268 CNS): 522 nM
GI50 (DU-145 prostate): 50.4 nM
TGI (DU-145 prostate): 292 nM
GI50 (HCC-2998 colon): 153 nM
TGI (HCC-2998 colon): 956 nM
GI50 (T-47D breast): 363 nM
TGI (T-47D breast): 5360 nM
GI50 (NCI-H23 lung): 102 nM
TGI (NCI-H23 lung): 322 nM
GI50 (SK-MEL-5 melanoma): 270 nM
TGI (SK-MEL-5 melanoma): 1160 nM
GI50 (SN12C renal): 26.9 nM
TGI (SN12C renal): 275 nM
GI50 (HCT-15 colon): 45.4 nM
TGI (HCT-15 colon): 471 nM
GI50 (SNB-75 CNS): 102 nM
TGI (SNB-75 CNS): 235 nM
GI50 (MCF7 breast): 51.3 nM
TGI (MCF7 breast): 651 nM
GI50 (SW-620 colon): 57.7 nM
TGI (SW-620 colon): 2450 nM
GI50 (UACC-62 melanoma): 138 nM
TGI (UACC-62 melanoma): 1010 nM
GI50 (MDA-MB-231 breast): 32 nM
TGI (MDA-MB-231 breast): 223 nM
GI50 (CAKI-1 renal): 33.9 nM
TGI (CAKI-1 renal): 157 nM
GI50 (RXF 393 renal): 30.1 nM
TGI (RXF 393 renal): 141 nM
GI50 (OVCAR-4 ovarian): 123 nM
TGI (OVCAR-4 ovarian): 1590 nM
GI50 (NCI/ADR-RES ovarian): 445 nM
TGI (NCI/ADR-RES ovarian): 1910 nM
GI50 (HS 578T breast): 32.8 nM
TGI (HS 578T breast): 348 nM
GI50 (NCI-H522 lung): 33.9 nM
TGI (NCI-H522 lung): 181 nM
GI50 (UO-31 renal): 79.8 nM
TGI (UO-31 renal): 361 nM
GI50 (HOP-62 NSCLC): 121 nM
TGI (HOP-62 NSCLC): 844 nM
GI50 (BT-549 breast): 135 nM
TGI (BT-549 breast): 411 nM
GI50 (EKVX NSCLC): 39.9 nM
TGI (EKVX NSCLC): 300 nM
TGI (KM12 colon): 563 nM
GI50 (UACC-257 melanoma): 228 nM
TGI (UACC-257 melanoma): 1410 nM
GI50 (NCI-H226 lung): 33.9 nM
TGI (NCI-H226 lung): 334 nM
GI50 (IGROV1 ovarian): 34.4 nM
TGI (IGROV1 ovarian): 201 nM
GI50 (SF-539 CNS): 33.2 nM
TGI (SF-539 CNS): 135 nM
GI50 (SK-MEL-28 melanoma): 295 nM
TGI (SK-MEL-28 melanoma): 1340 nM
